In patent publication US6683078B2, “Use of sulfonyl aryl or heteroaryl hydroxamic acids and derivatives thereof as aggrecanase inhibitors” (priority 2001, dated 2004):
Structures can show the parent of a compound that is named as a salt.

Tests used:
Recombinant human MMP-13 = target: T1, Recombinant human MMP-13 (Homo sapiens, UniProt P45452); test: In vitro MMP inhibition, fluorogenic peptide substrate; format: biochemical
T1 construct: made in house; host or cells: baculovirus / insect cells
Description: The expressed proenzyme was first purified over a heparin agarose column, and then over a chelating zinc chloride column. The proenzyme was then activated by APMA for use in the assay.
(§1) The enzyme substrate was a methoxycoumarin-containing polypeptide having the following sequence:
MCA-ProLeuGlyLeuDpaAlaArgNH2
(§2) Here, “MCA” is methoxycoumarin and “Dpa” is 3-(2,4-dinitrophenyl)-L-2,3-diaminopropionyl alanine.
(§3) These solutions were then compared to a control (which contained an equal amount of DMSO/buffer solution, but no hydroxamate compound) using Microfluor™ White Plates (Dynatech, Chantilly, Va.). More specifically, the MMPs were activated with APMA or trypsin. Then the various hydroxamate/DMSO/buffer solutions and control solutions were introduced into separate plates at room temperature with the activated MMP. After 10 minutes, 4 um of the MMP substrate was added to each plate. The plates were then incubated for 5 minutes at room temperature. […] Inhibition was measured as a reduction in fluorescent intensity as a function of inhibitor concentration using a Perkin Elmer (Norwalk, Conn.) L550 plate reader. The IC50's were then calculated from these measurements.

Recombinant human MMP-1 = target: T2, Recombinant human MMP-1 (Homo sapiens, UniProt P03956); test: as above; format: biochemical
T2 construct: made in house; host or cells: transfected HT-1080 cells
T2 sequence (P03956 100-469): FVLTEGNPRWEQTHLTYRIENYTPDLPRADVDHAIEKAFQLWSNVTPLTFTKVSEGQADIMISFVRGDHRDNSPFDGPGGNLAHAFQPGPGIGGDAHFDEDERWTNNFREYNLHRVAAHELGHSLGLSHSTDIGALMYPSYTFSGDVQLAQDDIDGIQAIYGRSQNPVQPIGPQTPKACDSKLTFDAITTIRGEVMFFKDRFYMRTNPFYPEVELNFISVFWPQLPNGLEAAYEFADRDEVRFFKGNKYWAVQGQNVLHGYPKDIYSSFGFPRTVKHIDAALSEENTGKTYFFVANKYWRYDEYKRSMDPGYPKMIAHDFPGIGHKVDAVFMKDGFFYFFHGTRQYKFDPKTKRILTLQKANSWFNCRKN
Protocol: These enzymes were prepared in the Assignee's laboratories following usual laboratory procedures.
The MMP-1 was activated using 4-aminophenylmercuric acetate (APMA), and then purified over a hydroxamic acid column.
as §1
MCA-ProLeuGlyLeuDpaAlaArgNH2
as §2, §3

Recombinant human MMP-2 = target: T3, Recombinant human MMP-2 (Homo sapiens, UniProt P08253); test: as above; format: biochemical
T3 construct: made in house
T3 sequence (P08253 110-660): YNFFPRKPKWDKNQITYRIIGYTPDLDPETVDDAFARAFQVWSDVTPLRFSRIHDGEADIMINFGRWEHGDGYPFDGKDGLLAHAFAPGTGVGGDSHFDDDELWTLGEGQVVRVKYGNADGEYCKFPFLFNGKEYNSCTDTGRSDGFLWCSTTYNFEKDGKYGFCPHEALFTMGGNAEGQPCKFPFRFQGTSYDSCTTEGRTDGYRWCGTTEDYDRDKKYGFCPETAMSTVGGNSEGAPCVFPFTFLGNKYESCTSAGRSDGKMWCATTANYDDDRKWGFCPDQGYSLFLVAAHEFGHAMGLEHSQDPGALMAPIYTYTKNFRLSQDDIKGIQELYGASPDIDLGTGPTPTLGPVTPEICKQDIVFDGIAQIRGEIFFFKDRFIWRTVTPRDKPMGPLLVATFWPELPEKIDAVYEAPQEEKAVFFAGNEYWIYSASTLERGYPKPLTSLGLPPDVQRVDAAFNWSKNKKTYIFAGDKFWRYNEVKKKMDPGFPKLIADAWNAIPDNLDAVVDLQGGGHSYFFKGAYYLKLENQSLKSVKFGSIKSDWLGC
Description: as §1
MCA-ProLeuGlyLeuDpaAlaArgNH2
as §2, §3

Recombinant human MMP-3 = target: T4, Recombinant human MMP-3 (Homo sapiens, UniProt P08254); test: as above; format: biochemical; conditions: Table B
T4 construct: made in house
Protocol: (§4) These enzymes were prepared in the Assignee's laboratories following usual laboratory procedures. Specifics for preparing and using these enzymes can be found in the scientific literature describing these enzymes.
as §1
MCA-ProLeuGlyLeuDpaAlaArgNH2
as §2, §3

Recombinant human MMP-9 = target: T5, Recombinant human MMP-9 (Homo sapiens, UniProt P14780); test: as above; format: biochemical; conditions: Table B
T5 construct: made in house
Protocol: as §1
MCA-ProLeuGlyLeuDpaAlaArgNH2
as §2
More specifically, the MMPs were activated with APMA or trypsin. […] After 10 minutes, 4 um of the MMP substrate was added to each plate. The plates were then incubated for 5 minutes at room temperature. […] Inhibition was measured as a reduction in fluorescent intensity as a function of inhibitor concentration using a Perkin Elmer (Norwalk, Conn.) L550 plate reader. The IC50's were then calculated from these measurements.

Recombinant human MMP-8 = target: T6, Recombinant human MMP-8 (Homo sapiens, UniProt P22894); test: as above; format: biochemical; conditions: Table B
T6 construct: made in house
Protocol: as §4, §1
MCA-ProLeuGlyLeuDpaAlaArgNH2
as §2, §3

Recombinant human MMP-14 = target: T7, Recombinant human MMP-14 (Homo sapiens, UniProt P50281); test: as above; format: biochemical; conditions: Table B
T7 construct: made in house
Protocol: as §4, §1
MCA-ProLeuGlyLeuDpaAlaArgNH2
as §2, §3

[1] = test system: solid tumor cancers (colorectal, pancreatic, ovarian, and prostate); conditions: cited from earlier work

T5 sequence (P14780 107-707 limits assumed): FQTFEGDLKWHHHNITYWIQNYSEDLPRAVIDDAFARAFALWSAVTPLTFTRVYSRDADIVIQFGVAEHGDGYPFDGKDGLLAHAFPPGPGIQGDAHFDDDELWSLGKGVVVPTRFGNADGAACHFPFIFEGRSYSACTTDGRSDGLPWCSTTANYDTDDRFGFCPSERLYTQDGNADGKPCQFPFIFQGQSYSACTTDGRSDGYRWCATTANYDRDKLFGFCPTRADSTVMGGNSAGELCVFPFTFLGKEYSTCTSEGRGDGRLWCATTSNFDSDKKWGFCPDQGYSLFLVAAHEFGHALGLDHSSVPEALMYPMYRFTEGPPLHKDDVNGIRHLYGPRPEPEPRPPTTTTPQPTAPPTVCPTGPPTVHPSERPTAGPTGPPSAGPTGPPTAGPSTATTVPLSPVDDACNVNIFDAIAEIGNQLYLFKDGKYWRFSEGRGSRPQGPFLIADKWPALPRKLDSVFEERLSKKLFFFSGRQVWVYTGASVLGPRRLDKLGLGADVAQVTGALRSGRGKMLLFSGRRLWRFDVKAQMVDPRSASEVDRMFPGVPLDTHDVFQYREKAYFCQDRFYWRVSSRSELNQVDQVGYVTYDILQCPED
T6 sequence (P22894 101-467): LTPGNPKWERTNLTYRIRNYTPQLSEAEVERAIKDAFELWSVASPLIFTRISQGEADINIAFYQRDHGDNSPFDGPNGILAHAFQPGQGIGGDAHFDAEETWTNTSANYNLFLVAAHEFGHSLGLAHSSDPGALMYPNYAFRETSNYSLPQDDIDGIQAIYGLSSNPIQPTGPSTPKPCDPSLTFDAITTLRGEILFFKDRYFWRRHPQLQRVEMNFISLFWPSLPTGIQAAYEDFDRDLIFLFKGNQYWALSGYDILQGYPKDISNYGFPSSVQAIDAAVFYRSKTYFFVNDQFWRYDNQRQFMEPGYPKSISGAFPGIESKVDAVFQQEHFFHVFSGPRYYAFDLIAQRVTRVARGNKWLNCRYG
T4 sequence (P08254 100-477): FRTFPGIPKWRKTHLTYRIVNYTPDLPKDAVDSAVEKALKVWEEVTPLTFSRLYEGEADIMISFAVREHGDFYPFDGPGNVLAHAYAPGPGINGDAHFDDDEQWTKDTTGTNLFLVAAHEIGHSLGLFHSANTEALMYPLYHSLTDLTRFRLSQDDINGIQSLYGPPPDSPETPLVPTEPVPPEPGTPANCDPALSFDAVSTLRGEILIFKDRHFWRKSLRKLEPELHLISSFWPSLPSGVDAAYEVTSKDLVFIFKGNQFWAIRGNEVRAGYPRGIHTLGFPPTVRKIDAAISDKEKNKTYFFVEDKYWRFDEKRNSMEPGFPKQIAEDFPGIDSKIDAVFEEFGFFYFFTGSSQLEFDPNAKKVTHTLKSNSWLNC

O=C(NO)c1ccccc1S(=O)(=O)N1CCC(Cc2ccccc2)CC1 [Example 3, N-hydroxy-2-[[4-(phenylmethyl)-1-piperidinyl]sulfonyl]benzamide]
IC50 (Recombinant human MMP-13; Inhibition Table A): 1000 nM
IC50 (Recombinant human MMP-1; Inhibition Table A): > 10 µM
IC50 (Recombinant human MMP-2; Inhibition Table A): 148 nM

COc1ccc(S(=O)(=O)N2CCN(c3ccc(OC(F)(F)F)cc3)CC2)c(C(=O)NO)c1OC [Example 26]
IC50 (Recombinant human MMP-3): 1460 nM
IC50 (Recombinant human MMP-9): 40.1 nM
IC50 (Recombinant human MMP-13; Table B): 17.9 nM
IC50 (Recombinant human MMP-8): 7.1 nM
IC50 (Recombinant human MMP-14): 416 nM
IC50 (Recombinant human MMP-1; Table B): > 10 µM
IC50 (Recombinant human MMP-2; Table B): 0.4 nM

COc1ccc(S(=O)(=O)N2CCC(Oc3ccc(C(F)(F)F)cc3)CC2)c(C(=O)NO)c1OC [Example 16, N-hydroxy-2,3-dimethoxy-6-[[4-[4-(trifluoromethyl)phenoxy]-1-piperidinyl)sulfonyl]benzamide]
IC50 (Recombinant human MMP-1; Inhibition Table A): > 10 µM

O=C(NO)c1ccccc1S(=O)(=O)N1CCC(Oc2ccc(C(F)(F)F)cc2)C1 (centres unmarked) [Example 17, N-hydroxy-2-[[3-[4-(trifluoromethyl)phenoxy]-1-pyrrolidinyl]sulfonyl]benzamide]
IC50 (Recombinant human MMP-13; Inhibition Table A): 2000 nM
IC50 (Recombinant human MMP-2; Inhibition Table A): 1800 nM

O=C(NO)c1ccccc1S(=O)(=O)N1CCC(OCc2ccc(C(F)(F)F)cc2)CC1 [Example 14, N-hydroxy-2-[[4-[[4-(trifluoromethyl)phenyl]methoxy]-1-piperidinyl]sulfonyl]benzamide]
IC50 (Recombinant human MMP-13; Inhibition Table A): 900 nM
IC50 (Recombinant human MMP-1; Inhibition Table A): > 10 µM
IC50 (Recombinant human MMP-2; Inhibition Table A): 35 nM

CCCCOc1ccc(N2CCN(S(=O)(=O)c3ccc(OC)c(OC)c3C(=O)NO)CC2)cc1F [Example 25, 6-[[4-(butoxy-3-fluorophenyl)-1-piperazinyl]sulfonyl]-N-hydroxy-2,3-dimethoxybenzamide]
IC50 (Recombinant human MMP-3): 294 nM
IC50 (Recombinant human MMP-9): 22.1 nM
IC50 (Recombinant human MMP-13; Table B): 8.5 nM
IC50 (Recombinant human MMP-8): 252 nM
IC50 (Recombinant human MMP-14): > 10000 nM
IC50 (Recombinant human MMP-1; Table B): > 10 µM
IC50 (Recombinant human MMP-2; Table B): 0.4 nM

COc1ccc(-c2ccc(OC3CCN(S(=O)(=O)c4ccc(OC)c(OC)c4C(=O)NO)CC3)cc2)cc1OC [Example 27]
IC50 (Recombinant human MMP-3): 100 nM
IC50 (Recombinant human MMP-9): 370 nM
IC50 (Recombinant human MMP-13; Table B): 2.6 nM
IC50 (Recombinant human MMP-8): 115 nM
IC50 (Recombinant human MMP-14): 1700 nM
IC50 (Recombinant human MMP-1; Table B): > 10 µM
IC50 (Recombinant human MMP-2; Table B): 3.3 nM

COc1ccc(NS(=O)(=O)c2ccccc2C(=O)NO)cc1 [Example 7, N-hydroxy-2-[(4-methoxyanilino)sulfonyl]benzamide]
IC50 (Recombinant human MMP-13; Inhibition Table A): > 10000 nM
IC50 (Recombinant human MMP-1; Inhibition Table A): > 10 µM

O=C(NO)c1ccccc1S(=O)(=O)N1CCC(Oc2ccccn2)CC1 [Example 44, N-hydroxyl-2-[[4-(2-pyridinyloxy)-1-piperidinyl]sulfonyl]benzamide, monohydrochloride]
IC50 (Recombinant human MMP-1; Table B): > 10 µM

CC(O)(C(=O)NO)c1ccccc1S(=O)(=O)N1CCC(c2ccccc2)CC1 (centres unmarked) [Example 10, N,2-dihydroxy-2-methyl-2-[(4-phenyl-1-piperidinyl)sulfonyl]benzeneacetamide]
IC50 (Recombinant human MMP-1; Inhibition Table A): > 10 µM

O=C(NO)c1ccccc1S(=O)(=O)N1CCC(Oc2ccc(C(F)(F)F)cc2)CC1 [Example 13, N-hydroxy-2-[[4-[4-(trifluoromethyl)phenoxy]-1-piperidinyl]sulfonyl]benzamide]
IC50 (Recombinant human MMP-1; Inhibition Table A): > 10 µM

O=C(NO)c1ccccc1NS(=O)(=O)c1ccc(Oc2ccccc2)cc1 [Example 5, N-hydroxy-2-[[(4-phenoxyphenyl)-sulfonyl]amino]benzamide]
IC50 (Recombinant human MMP-13; Inhibition Table A): > 10000 nM
IC50 (Recombinant human MMP-1; Inhibition Table A): > 10 µM

COc1ccc(C(=O)NC2CCN(S(=O)(=O)c3ccccc3C(=O)NO)C2)cc1 (centres unmarked) [Example 11, N-hydroxy-2-[[3-[(4-methoxybenzoyl)amino]-1-pyrrolidinyl]sulfonyl]benzamide]
IC50 (Recombinant human MMP-13; Inhibition Table A): 2200 nM
IC50 (Recombinant human MMP-2; Inhibition Table A): 2300 nM

CNC(=O)[C@@H](NC(=O)[C@H](CC(C)C)[C@H](O)C(=O)NO)C(C)(C)C [Marimastat]
most common drug-related toxicity ([1]; clinical trials): musculoskeletal pain and stiffness
effect on cancer-specific antigens used as surrogate markers for biological activity ([1]; meta analysis of Phase I/II data, patients with advanced, treatment-refractory solid tumors): dose-related reduction in the rise of cancer-specific antigens

O=C(NO)c1ccccc1S(=O)(=O)N1CCC(c2ccccc2)CC1 [Example 9, N-Hydroxy-2-[[4-(phenyl)-1-piperidnyl]sulfonyl]benzamide]
IC50 (Recombinant human MMP-1; Inhibition Table A): > 10 µM

O=C(NO)c1c(F)cccc1S(=O)(=O)N1CCC(Oc2ccc(C(F)(F)F)cc2)CC1 [Example 19]
IC50 (Recombinant human MMP-1; Inhibition Table A): > 10 µM

O=C(NO)c1ccccc1S(=O)(=O)N1CCN(C(=O)c2ccccc2)CC1 [Example 53, 2-[(4-benzoyl-1-piperazinyl)sulfonyl]-N-hydroxybenzamide]
IC50 (Recombinant human MMP-13; Table B): 6700 nM
IC50 (Recombinant human MMP-2; Table B): 1000 nM

O=C(NO)c1ccccc1CS(=O)(=O)c1ccc(Oc2ccccc2)cc1 [Example 1, N-hydroxy-2-[[(4-phenoxyphenyl)-sulfonyl]methyl]benzamide]
IC50 (Recombinant human MMP-1; Inhibition Table A): > 10 µM

COc1ccc(S(=O)(=O)N2CCC(Sc3ccccc3)CC2)c(C(=O)NO)c1OC [Example 24]
IC50 (Recombinant human MMP-8): 107 nM

COc1ccccc1-c1ccc(OC2CCN(S(=O)(=O)c3ccc(OC)c(OC)c3C(=O)NO)CC2)cc1 [Example 22]
IC50 (Recombinant human MMP-1; Table B): > 10 µM

O=C(NO)c1ccccc1S(=O)(=O)N1CCC(Oc2ccc(OC(F)(F)F)cc2)CC1 [Example 12, N-hydroxy-2-[[4-[4-(trifluoromethoxy)phenoxy]-1-piperidinyl]sulfonyl]benzamide]
IC50 (Recombinant human MMP-13; Inhibition Table A): 33 nM
IC50 (Recombinant human MMP-1; Inhibition Table A): > 10 µM

COCCOc1cccc(S(=O)(=O)N2CCC(Oc3ccc(C(F)(F)F)cc3)CC2)c1C(=O)NO [Example 23, N-hydroxy-2-(2-methoxyethoxy)-6-[[4-[4-(trifluoromethyl)phenoxy]-1-piperidinyl]sulfonyl]benzamide]
IC50 (Recombinant human MMP-1; Table B): > 10 µM

O=C(NO)c1ccccc1S(=O)(=O)NCc1ccccc1 [Example 8, N-hydroxy-2-[(benzylamino)sulfonyl]benzamide]
IC50 (Recombinant human MMP-13; Inhibition Table A): > 10000 nM
IC50 (Recombinant human MMP-1; Inhibition Table A): > 10 µM

O=C(NO)c1ccccc1S(=O)(=O)Cc1ccc(-c2ccccc2)cc1 [Example 4, 2-[([1,11-biphenyl]-4-ylmethyl)-sulfonyl]-N-hydroxybenzamide]
IC50 (Recombinant human MMP-13; Inhibition Table A): > 10000 nM
IC50 (Recombinant human MMP-1; Inhibition Table A): > 10 µM
IC50 (Recombinant human MMP-2; Inhibition Table A): > 10000 nM

O=C(NO)c1ccccc1S(=O)(=O)Nc1ccc(Oc2ccccc2)cc1 [Example 15, N-hydroxy-2-[[(4-phenoxyphenyl)-amino]sulfonyl]benzamide]
IC50 (Recombinant human MMP-13; Inhibition Table A): 9000 nM
IC50 (Recombinant human MMP-1; Inhibition Table A): > 10 µM
IC50 (Recombinant human MMP-2; Inhibition Table A): 3500 nM
